Assay results: a compilation of properties of binary mixtures (doi:10.1021/acs.jced.6b00596)

Assay: xn = mol fraction of the nth substance listed
Details: 100 kPa

COCCOCCOCCOCCOC + CCCCCC[n+]1ccn(C)c1.O=S(=O)([N-]S(=O)(=O)C(F)(F)F)C(F)(F)F
viscosity [mPa·s]
Details	x1 = 0.099	x1 = 0.19	x1 = 0.276	x1 = 0.413	x1 = 0.544
278.15 K	171	130	109	78	50
283.15 K	126	97	81	60	–
288.15 K	–	74	63	–	–
293.15 K	74	57	–	–	–

CC(=O)[O-].CCCCCCCCCCCCCC[P+](CCCCCC)(CCCCCC)CCCCCC + COCCOCCOCCOCCOC
viscosity [mPa·s]
Details	278.15 K	283.15 K	288.15 K	293.15 K	298.15 K	303.15 K	308.15 K	313.15 K	318.15 K	323.15 K
x2 = 0.103	1160	789	–	392	–	216	166	–	103	84
x2 = 0.207	–	–	332	244	184	142	112	89	73	60
x2 = 0.299	401	291	215	162	125	99	79	64	53	–
x2 = 0.4	257	191	–	111	–	70	57	–	–	–
x2 = 0.499	–	121	92	73	58	–	–	–	–	–

CCC=C[n+]1ccn(C)c1C.O=[N+]([O-])c1cn[n-]c1 + COCCOCCOCCOCCOC
viscosity [mPa·s]
Details	278.15 K	283.15 K	288.15 K	293.15 K	298.15 K	303.15 K	308.15 K	313.15 K	318.15 K	323.15 K
x1 = 0.4	70	51	–	–	–	–	–	–	–	–
x1 = 0.5	139	97	70	53	–	–	–	–	–	–
x1 = 0.601	–	176	121	–	65	–	–	–	–	–
x1 = 0.701	622	385	249	169	–	89	69	53	–	–
x1 = 0.801	1280	737	447	288	195	–	101	77	60	–
x1 = 0.9	2810	–	–	525	338	228	161	–	89	70
x1 = 0.952	–	2200	–	706	–	289	204	140	104	–

CCCCCCCCCCCCCC[P+](CCCCCC)(CCCCCC)CCCCCC.O=[N+]([O-])c1c[n-]cn1 + COCCOCCOCCOCCOC
viscosity [mPa·s]
Details	278.15 K	283.15 K	288.15 K	293.15 K	298.15 K	303.15 K	308.15 K	313.15 K	318.15 K	323.15 K
x2 = 0.189	–	–	726	522	384	290	222	173	138	111
x2 = 0.404	443	324	240	180	135	–	85	70	57	–

CCCCCCCCCCCC[P+](CCCC)(CCCC)CCCC.c1c[n-]nn1 + COCCOCCOCCOCCOC
viscosity [mPa·s]
Details	x2 = 0.062	x2 = 0.123	x2 = 0.155	x2 = 0.214	x2 = 0.305	x2 = 0.395	x2 = 0.495	x2 = 0.596
278.15 K	1980	1230	907	671	–	226	131	–
283.15 K	1260	809	608	458	256	165	98	57
288.15 K	824	–	419	320	186	–	75	–
293.15 K	557	–	297	231	139	95	–	–
298.15 K	389	276	218	171	–	74	–	–
303.15 K	280	203	164	130	84	59	–	–

CCCCCCCC[P+](CC)(CC)CC.O=[N+]([O-])c1c[n-]cn1 + COCCOCCOCCOCCOC
viscosity [mPa·s]
Details	278.15 K	283.15 K	288.15 K	293.15 K	298.15 K	303.15 K	308.15 K	313.15 K	318.15 K	323.15 K
x1 = 0.499	77	60	–	–	–	–	–	–	–	–
x1 = 0.599	–	93	72	56	–	–	–	–	–	–
x1 = 0.699	–	153	–	87	69	55	–	–	–	–
x1 = 0.8	385	274	198	148	113	88	70	57	–	–
x1 = 0.9	700	481	337	243	–	137	107	85	69	56
x1 = 1	–	838	–	398	286	212	160	124	98	78
